For 17 compounds, IC50 results are on record in US6319897A, “Peptides which inhibit complement activation” (priority 1999, dated 2001).

Where a SMILES comes first, the peptide text is derived from it. Bridges are numbered along the chain shown (N, C = ends). The star is where a group is joined. Cam = NC(=O)C*

alternative pathway of complement activation, sequence (P01024 23-1663): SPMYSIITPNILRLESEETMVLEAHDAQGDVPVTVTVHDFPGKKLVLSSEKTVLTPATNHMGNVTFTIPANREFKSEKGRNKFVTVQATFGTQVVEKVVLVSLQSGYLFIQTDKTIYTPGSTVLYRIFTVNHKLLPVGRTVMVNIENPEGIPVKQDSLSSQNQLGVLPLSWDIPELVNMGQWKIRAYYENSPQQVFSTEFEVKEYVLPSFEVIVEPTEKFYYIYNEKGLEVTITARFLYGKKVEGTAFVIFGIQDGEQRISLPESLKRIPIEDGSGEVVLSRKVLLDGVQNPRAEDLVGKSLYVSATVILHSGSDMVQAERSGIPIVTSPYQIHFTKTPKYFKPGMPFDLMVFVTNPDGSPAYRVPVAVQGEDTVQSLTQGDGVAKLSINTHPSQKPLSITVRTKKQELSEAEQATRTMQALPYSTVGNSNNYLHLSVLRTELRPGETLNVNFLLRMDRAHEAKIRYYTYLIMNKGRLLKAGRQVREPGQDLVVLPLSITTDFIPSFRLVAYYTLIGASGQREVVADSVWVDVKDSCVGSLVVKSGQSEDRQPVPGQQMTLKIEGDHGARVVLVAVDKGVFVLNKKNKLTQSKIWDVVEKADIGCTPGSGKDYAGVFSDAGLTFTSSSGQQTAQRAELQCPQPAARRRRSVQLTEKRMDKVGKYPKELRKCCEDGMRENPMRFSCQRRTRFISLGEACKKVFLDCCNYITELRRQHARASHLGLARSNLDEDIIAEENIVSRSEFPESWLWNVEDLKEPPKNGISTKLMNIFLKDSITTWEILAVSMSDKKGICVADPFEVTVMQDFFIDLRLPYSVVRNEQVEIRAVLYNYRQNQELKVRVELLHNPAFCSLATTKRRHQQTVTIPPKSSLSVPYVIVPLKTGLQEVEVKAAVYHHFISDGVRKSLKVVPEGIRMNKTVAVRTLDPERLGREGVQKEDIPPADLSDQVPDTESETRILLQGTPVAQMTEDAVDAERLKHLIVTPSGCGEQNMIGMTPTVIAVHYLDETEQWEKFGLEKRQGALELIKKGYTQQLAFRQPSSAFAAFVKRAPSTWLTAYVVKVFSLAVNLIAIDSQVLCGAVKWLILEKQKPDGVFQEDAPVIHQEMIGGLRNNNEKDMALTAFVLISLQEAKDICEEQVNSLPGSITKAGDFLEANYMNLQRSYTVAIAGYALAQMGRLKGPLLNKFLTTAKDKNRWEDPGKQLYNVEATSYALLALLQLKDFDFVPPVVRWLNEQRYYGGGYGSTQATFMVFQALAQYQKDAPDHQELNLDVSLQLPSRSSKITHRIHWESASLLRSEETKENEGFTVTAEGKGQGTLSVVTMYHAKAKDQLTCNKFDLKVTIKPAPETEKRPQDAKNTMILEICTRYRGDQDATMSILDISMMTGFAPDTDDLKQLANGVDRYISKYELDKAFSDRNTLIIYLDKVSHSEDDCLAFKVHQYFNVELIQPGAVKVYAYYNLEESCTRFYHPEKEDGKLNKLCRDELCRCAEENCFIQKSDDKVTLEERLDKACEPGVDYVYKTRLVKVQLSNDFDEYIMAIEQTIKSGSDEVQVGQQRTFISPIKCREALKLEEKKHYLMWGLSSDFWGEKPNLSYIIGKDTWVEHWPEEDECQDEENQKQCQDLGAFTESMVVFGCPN

The first assay deals with alternative pathway of complement activation (Homo sapiens, UniProt P01024). In words: Hemolytic assay, alternative pathway: lysis of rabbit erythrocytes in normal human serum with MgEGTA. The settings on record: read-out: ALTERNATIVE PATHWAY IC50. The format is cell-based. As to the method:
Inhibition of the alternative pathway was measured by using rabbit erythrocytes in the presence of MgEGTA (FIG. 3A); inhibition of lysis of antibody-coated sheep erythrocytes was used as an indicator of inhibition of the classical pathway (FIG. 3B).
Inhibition of classical and alternative pathway activity by the peptides was measured. […] The reaction mixture was incubated at 37° C. for 1 hour and centrifuged. […] The effect of peptides on the alternative pathway was determined by measuring the lysis of rabbit erythrocytes (Er) in NHS. Various concentrations of peptide were mixed with 5 μl of NHS, 5 μl of MgEGTA and 10 μl of Er (1×10^9 /ml) and brought to a final volume of 100 μl in GVB. The reaction mixture was incubated at 37° C. for 20 minutes and stopped by adding 200 μl of GVBE. […] The percentage of lysis was normalized by considering 100% lysis to be equal to the lysis occurring in the absence of the peptide.
For the compound `CC[C@H](C)[C@H](N)C(=O)N[C@@H](CSCC(N)=O)C(=O)N[C@H](C(=O)N[C@H](C(=O)N[C@@H](CCC(N)=O)C(=O)N[C@@H](CC(=O)O)C(=O)N[C@@H](Cc1c[nH]c2ccccc12)C(=O)NCC(=O)N[C@@H](Cc1c[nH]cn1)C(=O)N[C@@H](Cc1c[nH]cn1)C(=O)N[C@@H](CCCNC(=N)N)C(=O)N[C@@H](CSCC(N)=O)C(=O)N[C@H](C(=O)N[C@@H](C)C(=O)NCC(=O)N[C@@H](Cc1c[nH]cn1)C(=O)N[C@@H](CCSC)C(=O)N[C@@H](C)C(=O)N[C@@H](CC(N)=O)C(=O)N[C@@H](CC(C)C)C(=O)N[C@H](C(=O)N[C@@H](CO)C(=O)N[C@@H](Cc1c[nH]cn1)C(=O)N[C@@H](C)C(=O)N[C@@H](CO)C(=O)N[C@@H](C)C(=O)N[C@H](C(N)=O)[C@@H](C)CC)[C@@H](C)O)[C@@H](C)O)C(C)C)C(C)C` [II] (H-IC(Cam)VVQDWGHHRC(Cam)TAGHMANLTSHASAI-NH2), the IC50 was greater than 300 µM.

For `C[C@@H](O)[C@H](NC(=O)[C@@H]1CSSC[C@H](N)C(=O)N[C@@H](Cc2c[nH]c3ccccc23)C(=O)NCC(=O)N[C@@H](Cc2c[nH]cn2)C(=O)N[C@@H](Cc2c[nH]cn2)C(=O)N[C@@H](CCCNC(=N)N)C(=O)N1)C(N)=O` [IX] (H-CWGHHRCT-NH2; disulfide 1-7), the IC50 is greater than 600 µM. The same measure, in the same setting: then `CC[C@H](C)[C@H](N)C(=O)N[C@@H](CSCC(N)=O)C(=O)N[C@H](C(=O)N[C@H](C(=O)N[C@@H](CCC(N)=O)C(=O)N[C@@H](CC(=O)O)C(=O)N[C@@H](Cc1c[nH]c2ccccc12)C(=O)NCC(=O)N[C@@H](Cc1c[nH]cn1)C(=O)N[C@@H](Cc1c[nH]cn1)C(=O)N[C@@H](CCCNC(=N)N)C(=O)N[C@@H](CSCC(N)=O)C(=O)N[C@H](C(N)=O)[C@@H](C)O)C(C)C)C(C)C` [Peptide V], with greater than 300 µM; and `C[C@@H](O)[C@H](NC(=O)[C@@H]1CSSC[C@H](N)C(=O)NCC(=O)N[C@@H](Cc2c[nH]cn2)C(=O)N[C@@H](Cc2c[nH]cn2)C(=O)N[C@@H](CCCNC(=N)N)C(=O)N1)C(N)=O` [VIII] (H-CGHHRCT-NH2; disulfide 1-6), with greater than 600 µM. Still for that read-out and setting: the figure for `C[C@@H](O)[C@H](NC(=O)[C@@H]1CSSC[C@H](N)C(=O)N[C@@H](Cc2c[nH]cn2)C(=O)N[C@@H](Cc2c[nH]cn2)C(=O)N[C@@H](CCCNC(=N)N)C(=O)N1)C(N)=O` [VII] (H-CHHRCT-NH2; disulfide 1-5) is greater than 600 µM. Still for that read-out and setting: the figure for `CC(C)[C@@H]1NC(=O)[C@H](C(C)C)NC(=O)[C@@H](N)CSSC[C@@H](C(N)=O)NC(=O)[C@H](Cc2c[nH]c3ccccc23)NC(=O)[C@H](CC(=O)O)NC(=O)[C@H](CCC(N)=O)NC1=O` [XIII] (H-CVVQDWC-NH2; disulfide 1-7) is greater than 600 µM; for `CC(C)[C@@H]1NC(=O)[C@@H](N)CSSC[C@@H](C(=O)N[C@H](C(N)=O)[C@@H](C)O)NC(=O)[C@H](CCCNC(=N)N)NC(=O)[C@H](Cc2c[nH]cn2)NC(=O)[C@H](Cc2c[nH]cn2)NC(=O)CNC(=O)[C@H](Cc2c[nH]c3ccccc23)NC(=O)[C@H](CC(=O)O)NC(=O)[C@H](CCC(N)=O)NC1=O` [XII] (H-CVQDWGHHRCT-NH2; disulfide 1-10) it is greater than 600 µM; for `CC(C)[C@@H]1NC(=O)[C@H](C(C)C)NC(=O)[C@@H](N)CSSC[C@@H](C(N)=O)NC(=O)[C@H](Cc2c[nH]cn2)NC(=O)CNC(=O)[C@H](Cc2c[nH]c3ccccc23)NC(=O)[C@H](CC(=O)O)NC(=O)[C@H](CCC(N)=O)NC1=O` [XIV] (H-CVVQDWGHC-NH2; disulfide 1-9) it is greater than 600 µM. Turning to `CC(C)[C@@H]1NC(=O)[C@H](C(C)C)NC(=O)[C@@H](N)CSSC[C@@H](C(N)=O)NC(=O)[C@H](CCCNC(=N)N)NC(=O)[C@H](Cc2c[nH]cn2)NC(=O)[C@H](Cc2c[nH]cn2)NC(=O)CNC(=O)[C@H](C)NC(=O)[C@H](CC(=O)O)NC(=O)[C@H](CCC(N)=O)NC1=O` [XIX] (H-CVVQDAGHHRC-NH2; disulfide 1-11), the IC50 turned out to be 182 µM. On to `C[C@@H](O)[C@H](NC(=O)[C@@H]1CSSC[C@H](N)C(=O)N[C@@H](CCC(N)=O)C(=O)N[C@@H](CC(=O)O)C(=O)N[C@@H](Cc2c[nH]c3ccccc23)C(=O)NCC(=O)N[C@@H](Cc2c[nH]cn2)C(=O)N[C@@H](Cc2c[nH]cn2)C(=O)N[C@@H](CCCNC(=N)N)C(=O)N1)C(N)=O` [XI] (H-CQDWGHHRCT-NH2; disulfide 1-9), for which the IC50 was greater than 600 µM. Same read-out and setting: the figure for `CC(C)[C@@H]1NC(=O)[C@H](C(C)C)NC(=O)[C@@H](N)CSSC[C@@H](C(N)=O)NC(=O)[C@H](C)NC(=O)[C@H](Cc2c[nH]cn2)NC(=O)[C@H](Cc2c[nH]cn2)NC(=O)CNC(=O)[C@H](Cc2c[nH]c3ccccc23)NC(=O)[C@H](CC(=O)O)NC(=O)[C@H](CCC(N)=O)NC1=O` [XXIII] (H-CVVQDWGHHAC-NH2; disulfide 1-11) is 70 µM.

Staying with this assay, now noted: read-out: A[…] IC50.
Turning to `CC(C)[C@@H]1NC(=O)[C@H](C(C)C)NC(=O)[C@@H](N)CSSC[C@@H](C(N)=O)NC(=O)[C@H](CCCNC(=N)N)NC(=O)[C@H](Cc2c[nH]cn2)NC(=O)[C@H](Cc2c[nH]cn2)NC(=O)CNC(=O)[C@H](Cc2c[nH]c3ccccc23)NC(=O)[C@H](CC(=O)O)NC(=O)[C@H](CCC(N)=O)NC1=O` [VI] (H-CVVQDWGHHRC-NH2; disulfide 1-11), the IC50 was 33 µM. With `CC(C)[C@@H]1NC(=O)[C@H](C(C)C)NC(=O)[C@@H](N)CSSC[C@@H](C(N)=O)NC(=O)[C@H](CCCNC(=N)N)NC(=O)[C@H](Cc2c[nH]cn2)NC(=O)[C@H](Cc2c[nH]cn2)NC(=O)CNC(=O)[C@H](Cc2c[nH]c3ccccc23)NC(=O)[C@H](C)NC(=O)[C@H](CCC(N)=O)NC1=O` [XVIII] (H-CVVQAWGHHRC-NH2; disulfide 1-11), the IC50 was found to be 257 µM. The same measure, in the same setting: then `CC(C)[C@@H]1NC(=O)[C@H](C(C)C)NC(=O)[C@@H](N)CSSC[C@@H](C(N)=O)NC(=O)[C@H](CCCNC(=N)N)NC(=O)[C@H](Cc2c[nH]cn2)NC(=O)[C@H](Cc2c[nH]cn2)NC(=O)CNC(=O)[C@H](Cc2c[nH]c3ccccc23)NC(=O)[C@H](CC(=O)O)NC(=O)[C@H](C)NC1=O` [XVII] (H-CVVADWGHHRC-NH2; disulfide 1-11), with 910 µM. Still for that read-out and setting: then `CC(C)[C@@H]1NC(=O)[C@@H](N)CSSC[C@@H](C(N)=O)NC(=O)[C@H](CCCNC(=N)N)NC(=O)[C@H](Cc2c[nH]cn2)NC(=O)[C@H](Cc2c[nH]cn2)NC(=O)CNC(=O)[C@H](Cc2c[nH]c3ccccc23)NC(=O)[C@H](CC(=O)O)NC(=O)[C@H](CCC(N)=O)NC(=O)[C@H](C)NC1=O` [XVI] (H-CVAQDWGHHRC-NH2; disulfide 1-11), with 67 µM; and `CC(C)[C@@H]1NC(=O)[C@H](C)NC(=O)[C@@H](N)CSSC[C@@H](C(N)=O)NC(=O)[C@H](CCCNC(=N)N)NC(=O)[C@H](Cc2c[nH]cn2)NC(=O)[C@H](Cc2c[nH]cn2)NC(=O)CNC(=O)[C@H](Cc2c[nH]c3ccccc23)NC(=O)[C@H](CC(=O)O)NC(=O)[C@H](CCC(N)=O)NC1=O` [XV] (H-CAVQDWGHHRC-NH2; disulfide 1-11), with 1200 µM; and `CC(C)[C@@H]1NC(=O)[C@H](C(C)C)NC(=O)[C@@H](N)CSSC[C@@H](C(N)=O)NC(=O)[C@H](CCCNC(=N)N)NC(=O)[C@H](C)NC(=O)[C@H](Cc2c[nH]cn2)NC(=O)CNC(=O)[C@H](Cc2c[nH]c3ccccc23)NC(=O)[C@H](CC(=O)O)NC(=O)[C@H](CCC(N)=O)NC1=O` [XXII] (H-CVVQDWGHARC-NH2; disulfide 1-11), with 74 µM.

By IC50 is commonly meant the midpoint of a concentration-inhibition curve.
